According to the NIST ThermoML archive (doi:10.1016/j.jct.2019.03.023):

Conditions: isochoric method

CC(C)O [propan-2-ol]
mass density [kg/m3]
Conditions	Gas	Liquid
380.35 K	–	697.69
451.83 K	–	581.06
507.95 K	–	343.1
508.16 K	–	329.2
508.28 K	–	324.5
508.51 K	234.3	–
508.68 K	–	293.3
508.69 K	–	288.99
508.7 K	255.8	–
508.71 K	–	281.9
508.72 K	266.3	274
